Data from US20040082557A1, “Methods for treating estrogen-dependent disorders” (priority 2001, published 2004).

Experiments:
[1] = tested on: pain symptoms in premenopausal women; assay: Randomized, double-blind, parallel group clinical study of exemestane on pain symptoms in premenopausal women with endometriosis; assay type: in vivo, human; conditions: for ESS Composite Improvement from Visit 6 (Baseline): No / ESS Composite Improvement from Visit 6 (Baseline): Yes: % of total reported
[2] = tested on: endometrial explants; assay: Animal model of endometriosis in adult female rats (endometrium autotransplanted under the renal capsule); assay type: in vivo, rat; conditions: for volume of the explant: measured one week after the fourth weekly dose
[3] = 25 mg orally per day, Visit 10 (4 weeks of exemestane)
[4] = 25 mg orally per day, Visit 10 (4 weeks of exemestane), improvement = decrease of at least 1 point
[5] = 25 mg orally per day, Visit 14 (8 weeks of exemestane)
[6] = 25 mg orally per day, Visit 18 (follow-up)
[7] = 100 mg orally per day, Visit 10 (4 weeks of exemestane)
[8] = 100 mg orally per day, Visit 10 (4 weeks of exemestane), improvement = decrease of at least 1 point
[9] = 100 mg orally per day, Visit 14 (8 weeks of exemestane)
[10] = 100 mg orally per day, Visit 18 (follow-up)
[11] = either treatment group (25 or 100 mg/day), over the study period

C=C1C[C@@H]2[C@H](CC[C@]3(C)C(=O)CC[C@@H]23)[C@@]2(C)C=CC(=O)C=C12 [Exemestane, 6-methylenandrost-1,4-diene-3,17-dione]
tolerability ([1]; 25 mg and 100 mg, 54 woman subjects who received at least one dose): well tolerated
Dysmenorrhea: Improvement over Visit 6 (Baseline, Start of Treatment): No [1, 3]: 44.0%
Dyspareunia: Improvement over Visit 6 (Baseline, Start of Treatment): No [1, 3]: 35.3%
Pelvic Pain: Improvement over Visit 6 (Baseline, Start of Treatment): No [1, 3]: 44.0%
ESS Scale, Composite Score, Change from Visit 6, Mean ([1]; 25 mg orally per day, Visit 10 (4 weeks of exemestane), 17 patients with 3 endpoints evaluated, Visit 6 mean 5.0588, SD 2.0917, within treatment p 0.002): −2.000
ESS Composite Improvement from Visit 6 (Baseline): No [1, 3]: 56.0%
ESS Composite Improvement from Visit 6 (Baseline): Yes ([1]; 25 mg orally per day, Visit 10 (4 weeks of exemestane), improvement = at least 3-point decrease (3 symptoms) or 2-point (2 symptoms)): 44.0%
Dysmenorrhea: Improvement over Visit 6 (Baseline, Start of Treatment): Yes [1, 4]: 56.0%
Dyspareunia: Improvement over Visit 6 (Baseline, Start of Treatment): Yes [1, 4]: 64.7%
Pelvic Pain: Improvement over Visit 6 (Baseline, Start of Treatment): Yes [1, 4]: 56.0%
Dysmenorrhea: Improvement over Visit 6 (Baseline, Start of Treatment): No [1, 5]: 41.7%
Dysmenorrhea: Improvement over Visit 6 (Baseline, Start of Treatment): Yes [1, 5]: 58.3%
Dyspareunia: Improvement over Visit 6 (Baseline, Start of Treatment): No [1, 5]: 31.6%
Dyspareunia: Improvement over Visit 6 (Baseline, Start of Treatment): Yes [1, 5]: 68.4%
Pelvic Pain: Improvement over Visit 6 (Baseline, Start of Treatment): No [1, 5]: 41.7%
Pelvic Pain: Improvement over Visit 6 (Baseline, Start of Treatment): Yes [1, 5]: 58.3%
ESS Scale, Composite Score, Change from Visit 6, Mean ([1]; 25 mg orally per day, Visit 14 (8 weeks of exemestane), 19 patients, Visit 6 mean 5.1579, SD 1.8257, within treatment p <0.001): −2.000
ESS Composite Improvement from Visit 6 (Baseline): No [1, 5]: 66.7%
ESS Composite Improvement from Visit 6 (Baseline): Yes [1, 5]: 33.3%
Dysmenorrhea: Improvement over Visit 6 (Baseline, Start of Treatment): No [1, 6]: 64.0%
Dysmenorrhea: Improvement over Visit 6 (Baseline, Start of Treatment): Yes [1, 6]: 36.0%
Dyspareunia: Improvement over Visit 6 (Baseline, Start of Treatment): No [1, 6]: 29.4%
Dyspareunia: Improvement over Visit 6 (Baseline, Start of Treatment): Yes [1, 6]: 70.6%
Pelvic Pain: Improvement over Visit 6 (Baseline, Start of Treatment): No [1, 6]: 68.0%
Pelvic Pain: Improvement over Visit 6 (Baseline, Start of Treatment): Yes [1, 6]: 32.0%
ESS Scale, Composite Score, Change from Visit 6, Mean ([1]; 25 mg orally per day, Visit 18 (follow-up), 17 patients, Visit 6 mean 5.0588, SD 1.8028, within treatment p <0.001): −2.000
ESS Composite Improvement from Visit 6 (Baseline): No [1, 6]: 84.0%
ESS Composite Improvement from Visit 6 (Baseline): Yes [1, 6]: 16.0%
Dyspareunia score, Change from Baseline, Mean ± SD ([1]; 25 mg, Visit 10 (4 weeks of exemestane), baseline 1.6 ± 0.7, N 17): −0.9 ± 0.8
Pelvic Pain score, Change from Baseline, Mean ± SD ([1]; 25 mg, Visit 10 (4 weeks of exemestane), baseline 1.8 ± 0.5, N 25): −0.6 ± 0.9
Dysmenorrhea score, Change from Baseline, Mean ± SD ([1]; 25 mg, Visit 10 (4 weeks of exemestane), baseline 2.0 ± 0.6, N 17): −0.9 ± 0.8
Dyspareunia score, Change from Baseline, Mean ± SD ([1]; 25 mg, Visit 14 (8 weeks of exemestane), baseline 1.6 ± 0.7, N 19): −0.8 ± 0.6
Pelvic Pain score, Change from Baseline, Mean ± SD ([1]; 25 mg, Visit 14 (8 weeks of exemestane), baseline 1.8 ± 0.5, N 24): −0.6 ± 0.9
Dysmenorrhea score, Change from Baseline, Mean ± SD ([1]; 25 mg, Visit 14 (8 weeks of exemestane), baseline 2.0 ± 0.6, N 19): −0.8 ± 0.6
Dysmenorrhea: Improvement over Visit 6 (Baseline, Start of Treatment): No [1, 7]: 38.5%
Dyspareunia: Improvement over Visit 6 (Baseline, Start of Treatment): No [1, 7]: 38.9%
Pelvic Pain: Improvement over Visit 6 (Baseline, Start of Treatment): No [1, 7]: 30.8%
ESS Scale, Composite Score, Change from Visit 6, Mean ([1]; 100 mg orally per day, Visit 10 (4 weeks of exemestane), 18 patients, Visit 6 mean 5.9444, SD 2.0364, within treatment p <0.001): −2.5000
ESS Composite Improvement from Visit 6 (Baseline): No [1, 7]: 46.2%
ESS Composite Improvement from Visit 6 (Baseline): Yes ([1]; 100 mg orally per day, Visit 10 (4 weeks of exemestane), improvement = at least 3-point decrease (3 symptoms) or 2-point (2 symptoms)): 53.8%
Dysmenorrhea: Improvement over Visit 6 (Baseline, Start of Treatment): Yes [1, 8]: 61.5%
Dyspareunia: Improvement over Visit 6 (Baseline, Start of Treatment): Yes [1, 8]: 61.1%
Pelvic Pain: Improvement over Visit 6 (Baseline, Start of Treatment): Yes [1, 8]: 69.2%
Dysmenorrhea: Improvement over Visit 6 (Baseline, Start of Treatment): No [1, 9]: 39.1%
Dysmenorrhea: Improvement over Visit 6 (Baseline, Start of Treatment): Yes [1, 9]: 60.9%
Dyspareunia: Improvement over Visit 6 (Baseline, Start of Treatment): No [1, 9]: 47.1%
Dyspareunia: Improvement over Visit 6 (Baseline, Start of Treatment): Yes [1, 9]: 52.9%
Pelvic Pain: Improvement over Visit 6 (Baseline, Start of Treatment): No [1, 9]: 30.4%
Pelvic Pain: Improvement over Visit 6 (Baseline, Start of Treatment): Yes [1, 9]: 69.6%
ESS Scale, Composite Score, Change from Visit 6, Mean ([1]; 100 mg orally per day, Visit 14 (8 weeks of exemestane), 17 patients, Visit 6 mean 5.5882, SD 1.9059, within treatment p <0.001): −2.4118
ESS Composite Improvement from Visit 6 (Baseline): No [1, 9]: 43.5%
ESS Composite Improvement from Visit 6 (Baseline): Yes [1, 9]: 56.5%
Dysmenorrhea: Improvement over Visit 6 (Baseline, Start of Treatment): No [1, 10]: 50.0%
Dysmenorrhea: Improvement over Visit 6 (Baseline, Start of Treatment): Yes [1, 10]: 50.0%
Dyspareunia: Improvement over Visit 6 (Baseline, Start of Treatment): No [1, 10]: 50.0%
Dyspareunia: Improvement over Visit 6 (Baseline, Start of Treatment): Yes [1, 10]: 50.0%
Pelvic Pain: Improvement over Visit 6 (Baseline, Start of Treatment): No [1, 10]: 31.8%
Pelvic Pain: Improvement over Visit 6 (Baseline, Start of Treatment): Yes [1, 10]: 68.2%
ESS Scale, Composite Score, Change from Visit 6, Mean ([1]; 100 mg orally per day, Visit 18 (follow-up), 14 patients, Visit 6 mean 5.5714, SD 1.7852, within treatment p 0.016): −1.4286
ESS Composite Improvement from Visit 6 (Baseline): No [1, 10]: 50.0%
ESS Composite Improvement from Visit 6 (Baseline): Yes [1, 10]: 50.0%
Dyspareunia score, Change from Baseline, Mean ± SD ([1]; 100 mg, Visit 10 (4 weeks of exemestane), baseline 1.9 ± 1.0, N 18): −1.0 ± 1.3
Pelvic Pain score, Change from Baseline, Mean ± SD ([1]; 100 mg, Visit 10 (4 weeks of exemestane), baseline 2.1 ± 0.5, N 26): −0.8 ± 0.7
Dysmenorrhea score, Change from Baseline, Mean ± SD ([1]; 100 mg, Visit 10 (4 weeks of exemestane), baseline 2.1 ± 0.7, N 18): −1.0 ± 1.3
Dyspareunia score, Change from Baseline, Mean ± SD ([1]; 100 mg, Visit 14 (8 weeks of exemestane), baseline 1.9 ± 1.0, N 17): −0.8 ± 0.8
Pelvic Pain score, Change from Baseline, Mean ± SD ([1]; 100 mg, Visit 14 (8 weeks of exemestane), baseline 2.1 ± 0.5, N 23): −0.8 ± 0.8
Dysmenorrhea score, Change from Baseline, Mean ± SD ([1]; 100 mg, Visit 14 (8 weeks of exemestane), baseline 2.1 ± 0.7, N 17): −0.8 ± 0.7
endometriosis symptoms ([1]; 25 or 100 mg orally per day, 2 months): moderate improvement in endometriosis symptoms
blood pressure [1, 11]: Neither blood pressure nor body weight changed significantly
body weight [1, 11]: Neither blood pressure nor body weight changed significantly
hematology, plasma chemistry or urinalysis laboratory assays [1, 11]: No noteworthy changes
volume of the explant ([2]; exemestane alone, intramuscularly once a week for 4 consecutive weeks): dose-related decrease in the volume of the explant
effect on growth of the endometrial explants, combination ([2]; exemestane in combination with triptorelin at marginally or intermediate effective doses, 4 weeks): additive or synergistic effect

CC(C)C[C@H](NC(=O)[C@@H](Cc1c[nH]c2ccccc12)NC(=O)[C@H](Cc1ccc(O)cc1)NC(=O)[C@H](CO)NC(=O)[C@H](Cc1c[nH]c2ccccc12)NC(=O)[C@H](Cc1c[nH]cn1)NC(=O)[C@@H]1CCC(=O)N1)C(=O)N[C@@H](CCCNC(=N)N)C(=O)N1CCC[C@H]1C(=O)NCC(N)=O [triptorelin]
volume of the explant ([2]; triptorelin alone, subcutaneously once weekly for 4 weeks): dose-related decrease in the volume of the explant
